{
  "source": "patent US20060009618A1",
  "about": "“Expression receptors with 7 transmembrane domains in baculovirus-insect cell system” (priority 2002, published 2006)",
  "key": {"non-infected Sf9 cells": {"tested_on": "non-infected Sf9 cells", "experiment": "Calcium imaging (fura-2) in non-infected Sf9 cells", "format": "cell-based, Spodoptera frugiperda", "details": "ionophore at 5 μM, FIG. 2 top graph", "method": "In a first series of experiments, the possibility of measuring the calcium response in Sf9 cells using the calcium imaging technique was tested.\nThe protocol used for the assays is as follows:\n(§1) Sf9 cells are cultured on 24-well plates containing 12 mm coverslips. Before the experiments, the culture medium is removed and washed with a buffer containing 10 mM of NaCl, 60 mM of KCl, 25 mM of MgCl2, 1.8 mM of CaCl2, 4 mM of D-glucose, 110 mM of sucrose and 10 mM of 2-(N-morpholino)ethanesulfonic acid; the pH is adjusted to 6.2 at ambient temperature with Trizma base.\nThe cells are incubated for 1 hour at ambient temperature in the dark with a solution of MBS containing fura 2-AM (4 μm) (molecular probe). […]\n(§2) The fura-2 fluorescence measurements are carried out using a T.I.L.L Photonics GmbH, (Planegg) Polychrome II multipath wavelength illumination system for extinction. […] The acquisition and the calculation of the fluorescence images are carried out using the T.I.L.L-Vision program. […] The fluorescence ratios (f340/f380) are calculated for the intracellular Ca^2+ variations. […]\nThe Ca^2+ signals are the result of the mean determined on all the cells in the field of the camera (gray signal) and of the mean for the responding cells (black signal) (n=4)."}, "[1]": {"tested_on": "octopamine receptor naturally present in Sf9 cells", "experiment": "Octopamine control, calcium imaging (fura-2) in Sf9 cells", "format": "cell-based, Spodoptera frugiperda", "details": "50 μM", "method": "as §1\nThe cells are incubated for 1 hour at ambient temperature in the dark with a solution of MBS containing fura 2-AM (4 μm) (molecular probe). The cells are then washed with an excess of MBS without fura 2-AM and mounted in a Coverwell chamber (Polylabo, France) (diameter: 9 mm; thickness: 2.5 mm; cross section: 22.5).\nThe chamber is placed under the microscope and the cells are perfused under gravity with 0.85 ml/min (3.78 cm/min) at ambient temperature (23° C.).\nas §2, with “extinction. The microscope (Olympus) is equipped with a long-distance objective (×20). The spatio-temporal Ca^2+ distributions are studied using a PCO interline camera.” for “extinction.”"}, "[2]": {"biological_target": "T1, HA-Gα16 (Gα16 protein with N-terminal HA epitope), expressed in Sf9 cells (human, UniProt P30679 1-374)", "T1 construct": "whole, on cells; Intracellular protein with a submembrane cytoplasmic location in infected Sf9 cells; also called Ga16; G16", "T1 sequence (looked up)": "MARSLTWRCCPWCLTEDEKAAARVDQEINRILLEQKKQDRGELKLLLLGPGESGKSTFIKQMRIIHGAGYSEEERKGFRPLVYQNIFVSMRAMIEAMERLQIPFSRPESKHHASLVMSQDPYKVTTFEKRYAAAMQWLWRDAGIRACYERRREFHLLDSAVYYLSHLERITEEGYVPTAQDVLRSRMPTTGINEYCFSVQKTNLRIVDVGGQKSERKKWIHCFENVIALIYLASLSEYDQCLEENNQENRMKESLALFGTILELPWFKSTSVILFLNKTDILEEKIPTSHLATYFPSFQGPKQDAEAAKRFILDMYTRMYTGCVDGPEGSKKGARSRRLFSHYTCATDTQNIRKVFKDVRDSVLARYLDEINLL", "experiment": "colocalization by immunofluorescence, confocal microscopy, Sf9 cells infected with double-recombinant baculovirus", "method": "The cellular location of the ORs and of the G proteins were studied by immunofluorescence 36 hours after infection. The ORs are detected by means of an anti-FLAG primary antibody and an FITC-labeled secondary antibody. The G proteins are detected by means of a rhodamine-labeled anti-HA antibody.\nThe labeled cells are observed by confocal microscopy. In the cells infected with the AcMNPV209 and AcMNPV210 baculoviruses, labeling is observed to be located at the cell surface, with a punctate distribution typical of membrane receptors. In the cells infected with the AcSLP10G₁₆ and AcSLP10Golf baculoviruses, labeling is observed to have a submembrane cytoplasmic location. In the cells infected with the double-recombinant baculoviruses AcG₁₆-209, AcGolf-210, AcG₁₆-209 and AcGolf-210, colocalization of the receptor with each G protein co-expressed is observed. No major difference is observed between OR17-209 and OR17-210 as regards preferential binding with Golf or G₁₆. It therefore appears that these two receptors are capable of coupling to the two G proteins in insect cells."}},
  "data": [
    {"molecule": "CNc1c(Br)cc2oc(C[C@H]3O[C@@]4(CC[C@H]3C)O[C@H]([C@H](C)C(=O)c3ccc[nH]3)[C@H](C)C[C@H]4C)nc2c1C(=O)O", "note": "[4-bromo A23187, 4-bromo-A23187]", "values": [
      {"measurement": "intracellular Ca2+ variation (fluorescence ratio f340/f380)", "setting": "non-infected Sf9 cells", "value": "induces a large increase in intracellular calcium"}
    ]},
    {"molecule": "NCC(O)c1ccc(O)cc1", "note": "(stereo not shown) [octopamine]", "values": [
      {"measurement": "intracellular calcium", "setting": "[1]; all baculovirus-infected Sf9 cells (OR17-209 or OR17-210 alone, with G16 or with Golf), 36 hours after infection, FIG. 3", "value": "induces an increase in intracellular calcium"},
      {"measurement": "intracellular Ca2+ variation (fluorescence ratio f340/f380)", "setting": "[1]; non-infected Sf9 cells, FIG. 2 bottom graph, B", "value": "induces an increase in intracellular calcium"}
    ]},
    {"molecule": "human olfactory receptor OR17-209 with N-terminal FLAG epitope, expressed in Sf9 cells from baculovirus AcMNPV209 (receptor, UniProt P47890 1-313, looked up, not shown: small tags and cut ends, whole, on cells; The construct encodes EGT signal peptide, FLAG and receptor; also called OR-209) MEGKNLTSISECFLLGFSEQLEEQKPLFGSFLFMYLVTVAGNLLIILVIITDTQLHTPMYFFLANLSLADACFVSTTVPKMLANIQIQSQAISYSGCLLQLYFFMLFVMLEAFLLAVMAYDCYVAICHPLHYILIMSPGLCIFLVSASWIMNALHSLLHTLLMNSLSFCANHEIPHFFCDINPLLSLSCTDPFTNELVIFITGGLTGLICVLCLIISYTNVFSTILKIPSAQGKRKAFSTCSSHLSVVSLFFGTSFCVDFSSPSTHSAQKDTVASVMYTVVTPMLNPFIYSLRNQEIKSSLRKLIWVRKIHSP", "values": [
      {"measurement": "binding result", "setting": "[2]", "value": "binds"}
    ]}
  ]
}
